pEC50, pKi: −log10 of the molar value. Read-outs that look alike come from different tables or passages of the source.
Assays:
[1] = molecular target: T1, HIV-1 protease (Q7S) (Human immunodeficiency virus type 1 group M subtype B, UniProt P04585, Q495S); assay: HIV-1 Protease RET Assay; format: biochemical; conditions: for Ki: Ave. Ki (nM), RET assay, Q7S enzyme, pH 4.8, 37 C; for pKi: Ki, table of drawn compounds, unit inferred
T1 construct: made in house
Method: Ki's for the inhibitors of HIV-1 protease were determined using a resonance energy transfer (RET) assay. […] This enzyme is first partially purified as inclusion bodies from cell lysate. It is then solublized in 8M urea and passed through a Q-Sepharose column (Pharmacia) for further purification. To refold this protein, samples containing Q7S is dialyzed into 50 mM sodium phosphate pH 7.0, 50 mM NaCl, 10 mM DTT, and 10% glycerol.
The commercially available peptide substrate (Molecular Probes Cat. # H-2930) RE(EDANS)SQNYPIVQK(DABCYL)R is used to assess activity and Ki's. This peptide is cleaved quantitatively by HIV-1 Pr at the Tyr-Pro bond. The EDANS fluorophore absorbs at 340 nm and emits at 490 nm. The reaction is carried out in a 96 well plate in a total volume of 100 μL and is run for 12 minutes at 37 C under steady-state conditions with 5 μM substrate and 2 nM active dimer enzyme concentration. The literature value Km for this substrate and enzyme is 103+/−8 μM (See Matayoshi, et al., “Novel Fluorogenic Substrates for Assaying Retroviral Proteases by Resonance Energy Transfer,” Science 247, 954 (1990)). The buffer for this reaction is 0.1M sodium acetate pH 4.8, 1M NaCl, 1 mM EDTA, 5 mM dithiothreitol, 10% dimethyl sulfoxide and 1 mg/ml bovine serum albumin. Inhibition curves are fit using the Morrison tight binding equation.

[2] = test system: HIV-1; assay: Cytopathic Effect (CPE) Inhibition Assay (XTT dye reduction); format: cell-based; conditions: for EC50: Human immunodeficiency virus 1, 144 h, read-out: Ave CPE EC50 (mM); for pEC50: Human immunodeficiency virus 1
Method: T-cell lines, CEM-SS, and MT-2, and viruses HIV-1 RF and HIV-1 NL4–3 (pNL4–3) were obtained from the National Institutes of Health (AIDS Research and Reference Reagent Program, Bethesda, Md.).
The ability of compounds to protect cells against HIV infection was measured by the […] dye reduction method, essentially as described (See Pauwels, R. Balzarini, J. Baba, M. Snoeck, R. Schols, D. Herdewijn, P. Desmyter, J. and De Clercq, E. 1988, “Rapid and automated tetrazolium-based colorimetric assay for the detection of anti-HIV compounds,”. J Virol Methods., 20: 309–321 and Weislow, O. S. Kiser, R. Fine, D. L. Bader, J. Shoemaker, R. H. and Boyd, M. R. 1989. “New soluble-formazan assay for HIV-1 cytopathic effects: application to high-flux screening of synthetic and natural products for AIDS-antiviral activity”. J. Natl. Cancer Inst. 81:577–586). Subject cells were infected with test virus at an moi of 0.025 to 0.819 or mock infected with medium only and added at 2×10^4 cells per well into 96 well plates containing half-log dilutions of test compounds. Six days later, 50 μl of XTT (1 mg/ml XTT tetrazolium, […] phenazine methosulfate) was added to the wells and the plate was reincubated for four hours. Viability, as determined by the amount of XTT formazan produced, was quantified spectrophotometrically by absorbance at 450 nm. Data from CPE assays were expressed as the percent of formazan produced in compound-treated cells compared to formazan produced in wells of uninfected, compound-free cells. The fifty percent effective concentration (EC50) was calculated as the concentration of compound that effected an increase in the percentage of formazan production in infected, compound-treated cells to 50% of that produced by uninfected, compound-free cells. The 50% cytotoxicity concentration (CC50) was calculated as the concentration of compound that decreased the percentage of formazan produced in uninfected, compound-treated cells to 50% of that produced in uninfected, compound-free cells. The therapeutic index was calculated by dividing the cytotoxicity (CC50) by the antiviral activity (EC50).

Work on Cc1ccccc1CNC(=O)[C@H]1N(C(=O)[C@@H](O)[C@H](Cc2ccccc2)NC(=O)c2ccon2)CSC1(C)C [Example B3, Isoxazole-3-carboxylic acid {(1S,2S)-1-benzyl-3-[(R)-5,5-dimethyl-4-(2-methyl-benzylcarbamoyl)-thiazolidin-3-yl]-2-hydroxy-3-oxo-propyl}-amide] yielded a Ki [1] of 4 nM and an EC50 [2] of 409 nM.
Cc1c(O)cccc1C(=O)N[C@@H](Cc1ccccc1)[C@H](O)C(=O)N1CSC(C)(C)[C@H]1C(=O)NCC(C)(C)C was tested, and the pKi [1] was ≥ 10.00 and the pEC50 [2] was 7.28.
Compound C#CCN(C)C(=O)[C@H]1N(C(=O)[C@@H](O)[C@H](Cc2ccccc2)NC(=O)c2cccc(O)c2C)CSC1(C)C [Example A27, (R)-3-((2S,3S)-2-Hydroxy-3-{[1-(3-hydroxy-2-methyl-phenyl)-methanoyl]-amino}-4-phenyl-butanoyl)-5,5-dimethyl-thiazolidine-4-carboxylic acid methyl-prop-2-ynyl-amide] has a Ki [1] of 0.62 nM and an EC50 [2] of 72 nM.
Cc1ccccc1CNC(=O)[C@H]1N(C(=O)[C@@H](O)[C@H](Cc2ccccc2)NC(=O)c2ccccc2Cl)CSC1(C)C was tested, and the pKi [1] was 9.70 and the pEC50 [2] was 6.23.
Cc1cc(C(=O)N[C@@H](Cc2ccccc2)[C@H](O)C(=O)N2CSC(C)(C)[C@H]2C(=O)NCc2ccc(Cl)cc2C)no1 was tested, and the pKi [1] was 7.55 and the pEC50 [2] was 5.38.
Cc1c(O)cccc1C(=O)N[C@@H](Cc1ccccc1)[C@H](O)C(=O)N1CSC(C)(C)[C@H]1C(=O)NCCC(F)(F)F [Example A45, (R)-3-((2S,3S)-2-Hydroxy-3-{[1-(3-hydroxy-2-methyl-phenyl)-methanoyl]-amino}-4-phenyl-butanoyl)-5,5-dimethyl-thiazolidine-4-carboxylic acid (3,3,3-trifluoro-propyl)-amide] showed a Ki [1] of 0.51 nM and an EC50 [2] of 165 nM.
Compound CCC/C=C/CNC(=O)[C@H]1N(C(=O)[C@@H](O)[C@H](Cc2ccccc2)NC(=O)c2cccc(O)c2C)CSC1(C)C has a pKi [1] of 8.59 and a pEC50 [2] of 5.85.
In the case of Cn1cccc1C(=O)N[C@@H](Cc1ccccc1)[C@H](O)C(=O)N1CSC(C)(C)[C@H]1C(=O)NCc1ccccc1C(F)(F)F [Example B26, 3-{2-Hydroxy-3-[(1-methyl-1H-pyrrole-2-carbonyl)-amino]-4-phenyl-butyryl}-5,5-dimethyl-thiazolidine-4-carboxylic acid 2-trifluoromethyl-benzylamide], the Ki [1] was 2.9 nM and the EC50 [2] was 1710 nM.
For C#CCNC(=O)[C@H]1N(C(=O)[C@@H](O)[C@H](Cc2ccccc2)NC(=O)c2ccc(C)c(O)c2C)CSC1(C)C [Example B21, 3-(2-Hydroxy-3-{[1-(3-hydroxy-2,4-dimethyl-phenyl)-methyanoyl]-amino}-4-phenyl-butznoyl)-5,5-dimethyl-thiazolidine-4-carboxylic acid prop-2-ynylamide], the Ki [1] was 4.6 nM and the EC50 [2] was 598 nM.
Work on Cc1c(O)cccc1C(=O)N[C@@H](Cc1ccccc1)[C@H](O)C(=O)N1CSC(C)(C)[C@H]1C(=O)NCc1cc(F)c(F)cc1F yielded a pKi [1] of 9.77 and a pEC50 [2] of 6.54.
Cc1c(O)cccc1C(=O)N[C@@H](Cc1ccccc1)[C@H](O)C(=O)N1CSC(C)(C)[C@H]1C(=O)NCc1ccc(C(F)(F)F)c(F)c1 [Example A11] gave a Ki [1] of 19 nM and an EC50 [2] of 930 nM.
With Cc1c(O)cccc1C(=O)N[C@@H](Cc1ccccc1)[C@H](O)C(=O)N1CSC(C)(C)[C@H]1C(=O)NCC(=O)c1ccccc1 [Example A10, (R)-3-((2S,3S)-2-Hydroxy-3-{[1-(3-hydroxy-2-methyl-phenyl)-methanoyl]-amino}-4-phenyl-butanoyl)-5,5-dimethyl-thiazolidine-4-carboxylic acid (2-oxo-2-phenyl-ethyl)-amide] the Ki [1] was 51 nM and the EC50 [2] was > 1000 nM.
In the case of Cc1ccccc1CNC(=O)[C@H]1N(C(=O)[C@@H](O)[C@H](Cc2ccccc2)NC(=O)c2cc(Cl)on2)CSC1(C)C [Example B4, 5-Chloro-isoxazole-3-carboxylic acid {(1S,2S)-1-benzyl-3-[(R)-5,5-dimethyl-4-(2-methyl-benzylcarbamoyl)-thiazolidin-3-yl]-2-hydroxy-3-oxo-propyl}-amide], the Ki [1] was 1.7 nM and the EC50 [2] was 551 nM.
For Cc1ccccc1CNC(=O)[C@H]1N(C(=O)[C@@H](O)[C@H](Cc2ccccc2)NC(=O)c2c(C)noc2C)CSC1(C)C [Example B10, 3,5-Dimethyl-isoxazole-4-carboxylic acid {(1S,2S)-1-benzyl-3-[(R)-5,5-dimethyl-4-(2-methyl-benzylcarbamoyl)-thiazolidin-3-yl]-2-hydroxy-3-oxo-propyl}-amide], the Ki [1] was < 0.1 nM and the EC50 [2] was 1100 nM.
For Cc1ccccc1CNC(=O)[C@H]1N(C(=O)[C@@H](O)[C@H](Cc2ccccc2)NC(=O)c2cccc(F)c2C)COC1(C)C [Example C11, (S)-3-((2S,3S)-3-{[1-(3-Fluoro-2-methyl-phenyl)-methanoyl]-amino}-2-hydroxy-4-phenyl-butanoyl)-5,5-dimethyl-oxazolidine-4-carboxylic acid 2-methyl-benzylamide], the Ki [1] was 1.1 nM and the EC50 [2] was 1560 nM.
CCCOc1cccc(CNC(=O)[C@H]2N(C(=O)[C@@H](O)[C@H](Cc3ccccc3)NC(=O)c3cccc(O)c3C)CSC2(C)C)c1 [Example A43, (R)-3-((2S,3S)-2-Hydroxy-3-{[1-(3-hydroxy-2-methyl-phenyl)-methanoyl]-amino}-4-phenyl-butanoyl)-5,5-dimethyl-thiazolidine-4-carboxylic acid 3-propoxy-benzylamide] gave a Ki [1] of 0.35 nM and an EC50 [2] of 561 nM.
Cc1noc(C)c1C(=O)N[C@@H](Cc1ccccc1)[C@H](O)C(=O)N1CSC(C)(C)[C@H]1C(=O)NCc1ccccc1Cl [Example B23, 3,5-Dimethyl-isoxazole-4-carboxylic acid {1-benzyl-3-[4-(2-chloro-benzylcarbamoyl)-5,5-dimethyl-thiazolidin-3-yl]-2-hydroxy-3-oxo-propyl}-amide] gave a Ki [1] of 0.42 nM and an EC50 [2] of 1420 nM.
Cc1c(O)cccc1C(=O)N[C@@H](Cc1ccccc1)[C@H](O)C(=O)N1CSC(C)(C)[C@H]1C(=O)NCCc1ccccc1 [Example A19, (R)-3-((2S,3S)-2-Hydroxy-3-{[1-(3-hydroxy-2-methyl-phenyl)-methanoyl]-amino}-4-phenyl-butanoyl)-5,5-dimethyl-thiazolidine-4-carboxylic acid phenethyl-amide] gave a Ki [1] of 10 nM and an EC50 [2] of 442 nM.
With Cc1ccc(CNC(=O)[C@H]2N(C(=O)[C@@H](O)[C@H](Cc3ccccc3)NC(=O)c3cccc(O)c3C)CSC2(C)C)cc1 the pKi [1] was 9.14 and the pEC50 [2] was 6.85.
In the case of CC(=O)Nc1cccc(CNC(=O)[C@H]2N(C(=O)[C@@H](O)[C@H](Cc3ccccc3)NC(=O)c3cccc(O)c3C)CSC2(C)C)c1 [Example A33, (R)-3-((2S,3S)-2-Hydroxy-3-{[1-(3-hydroxy-2-methyl-phenyl)-methanoyl]-amino}-4-phenyl-butanoyl)-5,5-dimethyl-thiazolidine-4-carboxylic acid 3-acetylamino-benzylamide], the Ki [1] was < 0.1 nM and the EC50 [2] was 577 nM.
Work on COc1cccc(CNC(=O)[C@H]2N(C(=O)[C@@H](O)[C@H](Cc3ccccc3)NC(=O)c3ccc(C)c(O)c3C)CSC2(C)C)c1 yielded a pKi [1] of 8.43 and a pEC50 [2] of 5.88.
Work on Cc1ccccc1CNC(=O)C1N(C(=O)C(O)C(Cc2ccccc2)NC(=O)C2=NNC(=O)CC2)CSC1(C)C (centres unmarked) [Example B18, 6-Oxo-1,4,5,6-tetrahydro-pyridazine-3-carboxylic acid {1-benzyl-3-[5,5-dimethyl-4-(2-methyl-benzylcarbamoyl)-thiazolidin-3-yl]-2-hydroxy-3-oxo-propyl}-amide] yielded a Ki [1] of 0.29 nM and an EC50 [2] of 457 nM.
